According to patent publication US20040023211A1, “System and method for optimizing drug theraphy for the treatment of diseases” (priority 2000, published 2004):
Where two headings read alike, the source gives them in different places.

Assays:
[1] = system: HIV-1; assay type: in vivo, adults infected with HIV-1; conditions: change in viral load at week 24, sigmoidal Emax model, p<0.05
Protocol: The normalized inhibitory quotient (NIQ) was determined as: [formula]
Where the IQ in an individual patient (IQpatient) was calculated as ratio of the patient's trough concentration (Cmin) to the susceptibility of the patient's virus to the drug, expressed as fold change compared to wild type virus (Virtual Phenotype). The IQpt was then related to the reference inhibitory quotient (IQref), in which the mean population trough concentration of the drug from the product label was divided by the cut-off value of the fold change for susceptible viruses.
For amprenavir, nelfinavir, and ritonavir, the concentration 12 hours after dosing was used as the Cmin. […]

[2] = Amprenavir trough plasma concentration (Cmin, 12 hours after dosing) by LC-MS/MS in treatment-experienced patients; assay type: in vivo, adults infected with HIV-1; conditions: amprenavir 1200 mg bid with abacavir, efavirenz and ritonavir or nelfinavir, 17 patients
Protocol: Patients were enrolled into three parallel treatment groups that included abacavir 300 mg bid, amprenavir 1200 mg bid, and efavirenz 600 mg daily with either low dose ritonavir at 200 mg BID, high dose ritonavir at 500 mg bid, or nelfinavir 1250 mg bid.
Genotyping (VircoGEN II™, VIRCO) and VIRTUAL PHENOTYPE™ were performed on baseline samples. Viral load data were collected at baseline (mean of two pre-therapy samples) and at week 24. Serial pharmacokinetic samples were collected over 12 hours after week 3 for ritonavir-boosted regimens and after week 2 for nelfinavir-boosted regimens.
Amprenavir concentrations in plasma were determined by a validated LC-MS/MS method.
For amprenavir, nelfinavir, and ritonavir, the concentration 12 hours after dosing was used as the Cmin. For each drug, relationships between viral load change at week 24 and the Cmin, fold-change in resistance, and NIQ were fit to a sigmoidal maximum effect model.

[3] = system: HIV; conditions: cited from earlier work; for % of patients with viral load below 400 copies/mL at week 24: lopinavir plus efavirenz and 2 NRTIs, 56 patients

| Structure (SMILES) | correlation of NIQ with outcome at 24 weeks [1] | Cmin, range [2] | % of patients with viral load below 400 copies/mL at week 24 ([3]; lopinavir IQ 4-15) [%] | % of patients with viral load below 400 copies/mL at week 24 ([3]; lopinavir IQ <4) [%] | % of patients with viral load below 400 copies/mL at week 24 ([3]; lopinavir IQ >15) [%] | correlation of trough concentration alone with virologic outcome ([3]; lopinavir trough concentration alone, week 24) |
| --- | --- | --- | --- | --- | --- | --- |
| CC(C)CN(C[C@@H](O)[C@H](Cc1ccccc1)NC(=O)O[C@H]1CCOC1)S(=O)(=O)c1ccc(N)cc1 [Amprenavir, amprenavir] | correlated with outcome at 24 weeks | (264-3453) ng/ml | – | – | – | – |
| Cc1cccc(C)c1OCC(=O)N[C@@H](Cc1ccccc1)[C@@H](O)C[C@H](Cc1ccccc1)NC(=O)[C@H](C(C)C)N1CCCNC1=O [lopinavir] | – | – | 80 | 70 | 100 | no correlation with virologic outcome was found |
